Test [1] has as its system spontaneously beating right atrium. Put plainly: Isolated rat atria: rate of the spontaneously beating right atrium. The note with it: for Emax: read-out: Rate Intrinsic Activity; for EC50: molar concentration producing 50% of the compound's own maximum response. The procedure: (§1) Sprague-Dawley male rats (300-400g) are killed and the right and left atria dissected out independently and mounted on a combined tissue holder/electrode. […] The rate of the spontaneously beating right atrium (via an isometric transducer and a ratemeter) and the tension of the electrically paced left atrium (via an isometric transducer) are recorded on a M19 chart recorder.
(§2) After an initial stabilization period, the tissues are exposed to a maximal concentration of isoprenaline (10-^7M). The tissues are then washed several times until rate and tension return to baseline level. A dose-response curve to the test compound is then carried out.
(§3) Responses to each concentration of test compound are expressed as a percentage of the maximal responses to isoprenaline. Results are given in the form of (a) intrinsic activity (maximal effect of test compound with respect to isoprenaline maximum, i.e. isoprenaline intrinsic activity = 1) and (b) EC50 (the molar concentration at which the test compound produces 50% of its own maximum response).

The subject of another test is Male Sprague-Dawley rats. The test is described as follows: Effect on energy expenditure of rats. The following applies: Rattus norvegicus, po, percentage of rate of rats dosed with water; for response vs control in vivo at 8.9 mg/kg: 8.9 mg/kg p.o.; for response vs control in vivo at 3.7 mg/kg: 3.7 mg/kg p.o.; for response vs control in vivo at 3.6 mg/kg: 3.6 mg/kg p.o.; for response vs control in vivo at 7.1 mg/kg: 7.1 mg/kg p.o.; for response vs control in vivo at 7.2 mg/kg: 7.2 mg/kg p.o.; for response vs control in vivo at 4.3 mg/kg: 4.3 mg/kg p.o.; for response vs control in vivo at 21.6 mg/kg: 21.6 mg/kg p.o.; for response vs control in vivo at 32.6 mg/kg: 32.6 mg/kg p.o.; for response vs control in vivo at 4 mg/kg: 4.0 mg/kg p.o.; for response vs control in vivo at 8.2 mg/kg: 8.2 mg/kg p.o. The test is classed as in vivo. The procedure: Water was provided ad lib at all times. The compounds were administered orally in water to 3 or 4 rats. A further 4 rats were dosed orally with water. The rats were placed in boxes through which air was drawn and the oxygen content of the air leaving the boxes was measured. The energy expenditure of the rats was calculated for 3 hours and for 21 hours after dosing from the volume of air leaving the boxes and its oxygen content, following the principles described by J.B. de V. Weir, J. Physiol. (London) 109, 1-9 (1949). The results are expressed as a percentage of the rate of energy expenditure of the rats dosed with water.

In test [2] the test system is electrically paced left atrium. Put plainly: Isolated rat atria: tension of the electrically paced left atrium. The note with it: for Emax: read-out: Tension Intrinsic Activity; for EC50: molar concentration producing 50% of the compound's own maximum response. The procedure:
as §1, §2, §3

Where [3] appears, read: Rattus norvegicus, Krebs solution at 32°C, maximal effect relative to isoprenaline maximum (isoprenaline = 1).
Where [4] appears, read: Rattus norvegicus, Krebs solution at 32°C.
[5] abbreviates: 3 h, 0-3h after dosing, read-out: Mean Energy Expenditure 0-3h.
Setting [6] is: 21 h, 0-21h after dosing, read-out: Mean Energy Expenditure 0-21h.
Setting [7] is: Rattus norvegicus, organ bath at 29°C, maximal effect relative to isoprenaline maximum (isoprenaline = 1).
Setting [8] is: Rattus norvegicus, organ bath at 29°C.
Where [9] appears, read: Krebs solution at 32°C, maximal effect relative to isoprenaline maximum (isoprenaline = 1).

Read-outs that look alike come from different tables or passages of the source.

One may read the EC50 as the concentration at which the effect is half-maximal. Read a low EC50 as a more potent agent.

As for `CC(COc1ccc2c(c1)NC(=O)CO2)NCC(O)COc1ccccc1O` (centres unmarked) [Example 5, 6-[2-[3-(2-hydroxyphenoxy)-2-hydroxypropylamino]-2-methylethoxy]-2H-1,4-benzoxazin-3-(4H)-one hemifumarate], the Emax in test [1] (setting [3]) came to 18%. The compound further gave a concentration giving a half-maximal response (EC50) in test [1] (setting [4]) of 35 nM. The response vs control in vivo at 8.9 mg/kg in the test on Male Sprague-Dawley rats (setting [5]) was 111%; in the test on Male Sprague-Dawley rats (setting [6]) it was 100%.
Take `CC(COc1ccc2c(c1)NC(=O)CO2)NCC(O)COc1ccccc1` (centres unmarked) [Example 18, 6-[2-(2-Hydroxy-3-phenoxypropylamino)-2-methylethoxy]-2H-1,4-benzoxazin-3-(4H)-one]: the Emax in test [1] (setting [3]) amounted to 52%. Also, the response in test [1] (setting [4]) was half-maximal at 11 nM (EC50). The response vs control in vivo at 3.7 mg/kg with Male Sprague-Dawley rats (setting [5]) was 155%; with Male Sprague-Dawley rats (setting [6]), 109%.
In the case of `CC(Cc1ccc2c(c1)NC(=O)CO2)NCC(O)COc1ccc(O)cc1` (centres unmarked) [Example 14, 6-[2-[3-(4-Hydroxyphenoxy)-2-hydroxypropylamino]-2-methylethyl]-2H-1,4-benzoxazin-3-(4H)-one], the results for the Emax in test [2] (setting [3]) and in test [1] (setting [3]) were 54% and 87%, respectively. Besides, the EC50 in test [2] (setting [4]) stood at 1400 nM; in test [1] (setting [4]), 400 nM. Besides, the response vs control in vivo at 3.7 mg/kg stood at 114% in the test with Male Sprague-Dawley rats (setting [5]) and 103% in the test on Male Sprague-Dawley rats (setting [6]).
Take `CC(COc1ccc2c(c1)N(C)C(=O)CO2)NCC(O)c1cccc(Cl)c1` (centres unmarked) [Example 12, 6-[2-[2-(3-Chlorophenyl)-2-hydroxyethylamino]-2-methylethoxy]-4-methyl-2H-1,4-benzoxazin-3-(4H)-one hemifumarate]: the Emax in test [2] (setting [7]) came to 90%; in test [1] (setting [7]), 98%. For the same compound, the EC50 in test [2] (setting [8]) came to 790 nM; in test [1] (setting [8]), 29 nM. Moreover, the response vs control in vivo at 8.9 mg/kg in the test with Male Sprague-Dawley rats (setting [5]) came to 109%; in the test with Male Sprague-Dawley rats (setting [6]), 97%.
With `CC(Cc1ccc2c(c1)NC(=O)CO2)NCC(O)c1cccc(Cl)c1` (centres unmarked) [8 (14:86), 6-[2-[2-(3-Chlorophenyl)-2-hydroxyethylamino]-2-methylethyl]-2H-1,4-benzoxazin-3-(4H)-one], the “Tension Intrinsic Activity” value in test [2] (setting [9]) is 0.20. The values for the concentration for a half-maximal effect (EC50) in test [2] (Krebs solution at 32°C) and in test [1] (Krebs solution at 32°C) were 3800 nM and 750 nM, respectively. The “Rate Intrinsic Activity” value in test [1] (setting [9]) is on record as 0.16. Moreover, the response vs control in vivo at 3.6 mg/kg was determined as 125% with Male Sprague-Dawley rats (setting [5]) and 105% with Male Sprague-Dawley rats (setting [6]).
Consider `CC(Cc1ccc2c(c1)NC(=O)CO2)NCC(O)COc1ccccc1O` (centres unmarked) [Example 9, 6-[2-[3-(2-hydroxyphenoxy)-2-hydroxypropylamino]-2-methylethyl]-2H-1,4-benzoxazin-3-(4H)-one], for which the Emax is 12% in test [2] (setting [3]) and 15% in test [1] (setting [3]). Further, the results for the EC50 in test [2] (setting [4]) and in test [1] (setting [4]) were 28 nM and 30 nM, respectively.
For `CC(Cc1ccc2c(c1)NC(=O)CO2)NCC(O)COc1ccccc1` (centres unmarked) [Example 11, 6-[2-[3-Phenoxy-2-hydroxypropylamino]-2-methylethyl]-2H-1,4-benzoxazin-3-(4H)-one], the Emax in test [2] (setting [3]) came to 11%; in test [1] (setting [3]), 32%. Besides, the EC50 in test [2] (setting [4]) is 100 nM; in test [1] (setting [4]), 53 nM. The response vs control in vivo at 7.1 mg/kg in the test on Male Sprague-Dawley rats (setting [5]) stood at 119%; with Male Sprague-Dawley rats (setting [6]), 108%.
On to `CC(COc1ccc2c(c1)NC(=O)CO2)NCC(O)c1ccc(O)cc1` (centres unmarked) [Example 15, 6-[2-[2-(4-Hydroxyphenyl)-2-hydroxyethylamino]-2-methylethoxy]-2H-1,4-benzoxazin-3-(4H)-one], for which the figures for the Emax in test [2] (setting [3]) and in test [1] (setting [3]) were 88% and 98%, respectively. Moreover, the results for the EC50 in test [2] (setting [4]) and in test [1] (setting [4]) were 160 nM and 44 nM, respectively. Besides, the response vs control in vivo at 7.2 mg/kg in the test with Male Sprague-Dawley rats (setting [5]) stood at 126%; with Male Sprague-Dawley rats (setting [6]) it was 103%.
Consider `CC(Cc1ccc2c(c1)N(C)C(=O)CO2)NCC(O)c1cccc(Cl)c1` (centres unmarked) [Example 13, 6-[2-[2-(3-Chlorophenyl)-2-hydroxyethylamino]-2-methylethyl]-4-methyl-2H-1,4-benzoxazin-3-(4H)-one hemifumarate], for which the figures for the Emax in test [2] (setting [7]) and in test [1] (setting [7]) were 54% and 64%, respectively. The EC50 came out at 15000 nM in test [2] (setting [8]) and 250 nM in test [1] (setting [8]).
As for `C=CCOc1ccccc1OCC(O)CNC(C)COc1ccc2c(c1)NC(=O)CO2` (centres unmarked) [Example 16, 6-[2-[3-(2-Allyloxyphenoxy)-2-hydroxypropylamino]-2-methyl-ethoxy]-2H-1,4-benzoxazin-3-(4H)-one], the response vs control in vivo at 4.3 mg/kg in the test on Male Sprague-Dawley rats (setting [5]) was 115%; in the test with Male Sprague-Dawley rats (setting [6]), 101%.
Consider `CC(COc1ccc2c(c1)NC(=O)CO2)NCC(O)COc1cc(O)cc(O)c1` (centres unmarked) [Example 21, 6-[2-[3-(3,5-Dihydroxyphenoxy)-2-hydroxypropylamino]-2-methylethoxy]-2H-1,4-benzoxazin-3-(4H)-one hemifumarate], for which the Emax in test [1] (setting [7]) is 85%. This compound also came in with an EC50 in test [1] (setting [8]) of 16 nM. Moreover, the response vs control in vivo at 21.6 mg/kg in the test on Male Sprague-Dawley rats (setting [5]) stood at 110%; with Male Sprague-Dawley rats (setting [6]), 105%.
For `CC(Cc1ccc2c(c1)NC(=O)CO2)NCC(O)c1ccccc1` (centres unmarked) [Example 10, 6-[2-[2-Phenyl-2-hydroxyethylamino]-2-methylethyl]-2H-1,4-benzoxazin-3-(4H)-one], the response vs control in vivo at 32.6 mg/kg in the test on Male Sprague-Dawley rats (setting [5]) is 122%; in the test on Male Sprague-Dawley rats (setting [6]) it was 101%.
As to `COc1ccccc1OCC(O)CNC(C)COc1ccc2c(c1)NC(=O)CO2` (centres unmarked) [Example 17, 6-[2-[3-(2-Methoxyphenoxy)-2-hydroxypropylamino]-2-methyl-ethoxy]-2H-1,4-benzoxazin-3-(4H)-one], the Emax in test [1] (setting [7]) turned out to be 91%. A half-maximal effect in test [1] (setting [8]) (EC50) was put at 8.6 nM. In addition, the response vs control in vivo at 4 mg/kg with Male Sprague-Dawley rats (setting [5]) was 112%; in the test with Male Sprague-Dawley rats (setting [6]), 103%.
Turning to `CC(COc1ccc2c(c1)NC(=O)CO2)NCC(O)COc1cccc2[nH]ccc12` (centres unmarked) [Example 19, 6-[2-[2-hydroxy-3-(indol-4-yloxy)propylamino]-2-methyl-ethoxy]-2H-1,4-benzoxazin-3-(4H)-one], the Emax in test [1] (setting [7]) came to 54%. This compound also displayed an EC50 in test [1] (setting [8]) of 130 nM. The response vs control in vivo at 8.2 mg/kg with Male Sprague-Dawley rats (setting [5]) was determined as 116%; in the test with Male Sprague-Dawley rats (setting [6]), 114%.
